Results from ChEMBL document CHEMBL1201862, “PubChem BioAssay data set” (2004).
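Growth conditions: 96-well plates. Treatment: test compound, 48 hours, 5 concentrations. Analysis: linear interpolation between bracketing concentrations; unreached endpoints set to highest concentration. GI50 = concentration required for 50% inhibition of growth.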 Activity calls are given as the source filed them. Rule as the data show it: active = GI50 up to about 1.1 µM and inactive = higher.

What was measured:
Assay in all cases: inhibition of tumour cell growth, NCI panel, 48 h
SK-MEL-28 = tested on: SK-MEL-28
UACC-257 = tested on: UACC-257
CCRF-CEM = tested on: CCRF-CEM
A549 = tested on: A549
NCI-H522 = tested on: NCI-H522
SF-539 = tested on: SF-539
KM-20L2 = tested on: KM-20L2
NCI-H460 = tested on: NCI-H460
RPMI-8226 = tested on: RPMI-8226
SK-OV-3 = tested on: SK-OV-3
IGROV-1 = tested on: IGROV-1
HOP-62 = tested on: HOP-62
NCI-H226 = tested on: NCI-H226
LOX IMVI = tested on: LOX IMVI
NCI-H23 = tested on: NCI-H23
Malme-3M = tested on: Malme-3M
M19-MEL = tested on: M19-MEL
OVCAR-5 = tested on: OVCAR-5
OVCAR-8 = tested on: OVCAR-8
EKVX = tested on: EKVX

Measured: GI50

OCC#CCNCl
inactive: SK-MEL-28 > 100 µM | UACC-257 > 73.6 µM | CCRF-CEM > 100 µM | A549 > 100 µM | NCI-H522 > 100 µM | SF-539 > 100 µM | KM-20L2 > 100 µM | NCI-H460 > 100 µM | RPMI-8226 > 100 µM | SK-OV-3 > 100 µM | IGROV-1 > 100 µM | HOP-62 > 100 µM | NCI-H226 > 100 µM | LOX IMVI > 100 µM | NCI-H23 > 100 µM | Malme-3M > 100 µM | M19-MEL > 100 µM | OVCAR-5 > 100 µM | OVCAR-8 > 100 µM | EKVX > 100 µM
